{
  "source": "paper PMC12881681",
  "about": "(Molecular Pharmacology, 2025)",
  "key": {"AOX1": {"tested_on": "AOX1", "conditions": "zoniporide as AOX substrate; cited from earlier work"}, "[1]": {"conditions": "cancer patients, cited from earlier work; for Cmax: 150 mg/day erlotinib"}, "[2]": {"design": "method as in PMID 26330331", "conditions": "mice, oral dosing; cited from earlier work"}, "[3]": {"assay": "Pharmacokinetics study in mice: erlotinib pretreatment, carbazeran and 4-oxo-carbazeran", "type": "in vivo, BALB/c mice", "conditions": "erlotinib 100 mg/kg p.o.", "procedure": "BALB/c mice (male, ∼8 weeks old) were purchased and housed at the Biological Resource Centre, Agency for Science, Technology and Research (A∗STAR). The experimental protocol was approved by the A∗STAR Institutional Review Board. […] Blood (12.5 μL) was drawn from the tail vein (with a needle prick) at various times (0.25, 0.5, 0.75, 1, 2, 3, 4, 6, and 8 hours) after carbazeran dosing. The blood samples were diluted 2 times with 12.5 μL of water. Acetonitrile containing the internal standard (carbazeran-d4, 4 nM in 75 μL acetonitrile and 3 nM in final sample volume of 100 μL) was added to the blood samples to precipitate proteins. […] Blank and standard calibration samples were prepared from control mice that were not treated with any chemicals. Pharmacokinetic data were analyzed by noncompartmental analysis using Phoenix WinNonlin 6.3 (Certara).\nAt the end of the last blood collection (8 hour post-carbazeran dosing), the mice were sacrificed. […] The tissue samples were homogenized, and a 12.5 μL aliquot of the homogenate was diluted with an equal volume of water. Acetonitrile containing the internal standard (carbazeran-d4, 4 nM in 75 μL acetonitrile and 3 nM in final sample volume of 100 μL) was added to the diluted tissue samples (25 μL) to precipitate the proteins."}, "[4]": {"conditions": "ref erlotinib (TARCEVA), package insert, 2016; cited from earlier work"}, "[5]": {"conditions": "clinical phase I study; cited from earlier work"}, "AOX1 (rat liver cytosol)": {"tested_on": "AOX1 (rat liver cytosol)", "assay": "Inactivation of carbazeran 4-oxidation by rat liver cytosol", "type": "biochemical", "conditions": "10 μM (raloxifene 0.02 μM), 30-minute preincubation", "procedure": "Carbazeran 4-oxidation and O^6-benzylguanine 8-oxidation were deployed as AOX1-selective catalytic markers.[27] The assay conditions (amount of cytosolic protein, incubation time, and substrate concentration) for carbazeran 4-oxidation catalyzed by human recombinant AOX1 and human/rat/mouse liver cytosols were optimized previously.[7]^,[25]\nEnzymatic reaction was initiated by adding human liver cytosol (100 μg). After the specified preincubation duration, an aliquot (10 μL) of the preincubation mixture was transferred to 190 μL of a prewarmed (for 3 minutes at 37 °C) secondary incubation mixture (total volume of 200 μL) containing potassium phosphate buffer and carbazeran (15 μM) or O^6-benzylguanine (150 μM), which yielded a 20-fold dilution of the primary incubation mixture. The secondary incubation mixture was incubated for 5 minutes at 37 °C before the enzymatic reaction was terminated with 200 μL of ice-cold acetonitrile containing carbazeran-d4 (2.5 nM final concentration; internal standard for 4-oxo-carbazeran) or tolbutamide (25 nM final concentration; internal standard for 8-oxo-O^6-benzylguanine). Each sample was immediately mixed by vortex, placed on ice, centrifuged at 16,000g for 15 minutes at 4 °C and stored at –30 °C until ultra-high performance liquid chromatography–tandem mass spectrometry (UPLC-MS/MS) analysis. For enzyme inactivation assays involving rat and mouse liver cytosol and recombinant AOX1 assays, the experimental conditions were similar to those of human liver cytosol, except that the amount of cytosolic protein was 200 μg (rat) and 150 μg (mouse), respectively, and the incubation time of the secondary incubation mixture was 60 minutes. For the recombinant AOX1 enzyme assay, the amount of enzyme was 100 μg, the incubation time of the secondary incubation mixture was 15 minutes, and the total volume of the primary and secondary incubation mixtures was reduced to 100 μL.\nAn aliquot (10 μL) of the primary incubation mixture was transferred to a secondary incubation mixture containing carbazeran (15 μM) and incubated for (A) 180, (B) 5, or (C, D) 120 minutes."}},
  "note": "Several values for one entry are separate records, joined by “and”; a condition that tells them apart may be missing. Identical values can stand only once. Like-named read-outs stand apart in the source and are kept apart here.",
  "data": [
    {"smiles": "C#Cc1cccc(Nc2ncnc3cc(OCCOC)c(OCCOC)cc23)c1", "note": "[Erlotinib]", "values": [
      {"measurement": "Ki", "setting": "AOX1", "result": 720, "unit": "nM"},
      {"measurement": "Cmax", "setting": "[1]; day 28", "result": 5.39, "unit": "µM"},
      {"measurement": "Cmax", "setting": "[1]; erlotinib in plasma, day 24 to day 28", "result": "4.41 to 5.39", "unit": "µM"},
      {"measurement": "elimination half-life", "setting": "[2]", "result": 42, "unit": "min"},
      {"measurement": "concentration of 4-oxo-carbazeran metabolite in liver and kidneys", "setting": "[3]; 8 hours after carbazeran", "result": "decreased the concentration"},
      {"measurement": "concentration of carbazeran in liver and kidneys", "setting": "[3]; 8 hours after carbazeran", "result": "increased the concentration"},
      {"measurement": "concentration of 4-oxo-carbazeran metabolite in blood vs vehicle-treated control", "setting": "[3]; all time points to 8 h", "result": "far lesser concentration"},
      {"measurement": "concentration of carbazeran in blood vs vehicle-treated control", "setting": "[3]; all time points to 8 h", "result": "greater concentration"},
      {"measurement": "Plasma fu", "setting": "[4]", "result": "e Cmax,u = plasma fu × Cmax. Plasma fu = 0.07, based on erlotinib (TARCEVA), package insert, 2016. For O-desmethylerlotinib and O-didesmethylerlotinib, the fu is assumed to be similar to the parent drug."},
      {"measurement": "effect on plasma concentration of OSI-930", "setting": "[5]", "result": "increase"}
    ]},
    {"smiles": "C#Cc1cccc(Nc2ncnc3cc(OCCOC)c(OCCO)cc23)c1", "note": "[O-Desmethylerlotinib, O-desmethylerlotinib]", "values": [
      {"measurement": "decrease in carbazeran 4-oxidation", "setting": "AOX1 (rat liver cytosol)", "result": "92%–97%"}
    ]},
    {"smiles": "C#Cc1cccc(Nc2ncnc3cc(OCCO)c(OCCO)cc23)c1", "note": "[O-Didesmethylerlotinib, O-didesmethylerlotinib]", "values": [
      {"measurement": "C24h", "setting": "[1]; 150 mg/day erlotinib for 1–2 months", "result": "0.86–4.2 ng/mL and 2.35–11.49 nM"},
      {"measurement": "decrease in carbazeran 4-oxidation", "setting": "AOX1 (rat liver cytosol)", "result": "92%–97%"}
    ]}
  ]
}
